Here are results for five molecules from US20100048696A1, “AGRICULTURAL DISEASE CONTROL AGENT” (Idemitsu Kosan Co., Ltd., priority 2007, published 2010).

What all share (type): cell-based
Common to all, as to conditions: 5 minutes

One assay has as its system Erwinia chrysanthemi. As to the kind of experiment: Material disinfection test.
A further assay has as its system Burkholderia plantarii. As to the kind of experiment: Material disinfection test.
For a further assay, the system named is Burkholderia glumae. As to the kind of experiment: Material disinfection test.
Another assay concerns Ralstonia solanacearum.
A further assay concerns Pythium ultimum. Nature of the assay: Material disinfection test.
The next assay relates to Fusarium oxysporum. Nature of the assay: Material disinfection test.
A further assay concerns Rhizoctonia solani. Nature of the assay: Material disinfection test.
The next assay concerns Pyricularia oryzae.
For a further assay, the system named is Botrytis cinerea. As to the kind of experiment: Material disinfection test.

Like-named read-outs stand apart in the source and are kept apart here.

In the case of `CC(=O)O` [Acetic acid], the “Average value of viable bacteria counts on all materials examined” value (“Average value of viable bacteria counts” for short) with Erwinia chrysanthemi (10 times solution sprayed) is reported as 3.2 × 10^3 cfu/ml; in the assay with Erwinia chrysanthemi (50 times solution sprayed) it was 1.1 × 10^7 cfu/ml; in the assay on Burkholderia plantarii (10 times solution sprayed) it was 1.2 × 10^3 cfu/ml; with Burkholderia plantarii (50 times solution sprayed) it was 8.3 × 10^6 cfu/ml; in the assay with Burkholderia glumae (10 times solution sprayed), 5.0 × 10^2 cfu/ml; in the assay with Burkholderia glumae (50 times solution sprayed), 3.3 × 10^7 cfu/ml. In addition, the “Average value of viable bacteria counts” value is 2.8 × 10^2 cfu/ml in the assay with Ralstonia solanacearum (10 times solution sprayed) and 6.0 × 10^8 cfu/ml in the assay on Ralstonia solanacearum (50 times solution sprayed). Also, the “average value of viable filamentous fungi counts on all materials examined” value with Pythium ultimum (10 times solution sprayed) is reported as 58 cfu/ml; with Pythium ultimum (50 times solution sprayed) it was 6.8 × 10^3 cfu/ml; in the assay on Fusarium oxysporum (10 times solution sprayed), 76 cfu/ml; in the assay with Fusarium oxysporum (50 times solution sprayed), 4.2 × 10^2 cfu/ml; in the assay with Rhizoctonia solani (10 times solution sprayed), 33 cfu/ml; in the assay on Rhizoctonia solani (50 times solution sprayed), 3.1 × 10^2 cfu/ml. In addition, the “average value of viable filamentous fungi counts on all materials examined” value was 98 cfu/ml in the assay on Pyricularia oryzae (10 times solution sprayed), 1.5 × 10^2 cfu/ml in the assay with Pyricularia oryzae (50 times solution sprayed), 65 cfu/ml in the assay on Botrytis cinerea (10 times solution sprayed) and 2.6 × 10^2 cfu/ml in the assay on Botrytis cinerea (50 times solution sprayed).

Regarding `O=C1O[C@H]([C@@H](O)CO)C(O)=C1O` [Ascorbic acid], the “Average value of viable bacteria counts” value in the assay with Erwinia chrysanthemi (10 times solution sprayed) is recorded as 1.0 × 10^8 cfu/ml; with Erwinia chrysanthemi (50 times solution sprayed), 1.0 × 10^8 cfu/ml; with Burkholderia plantarii (10 times solution sprayed), 1.6 × 10^7 cfu/ml; in the assay on Burkholderia plantarii (50 times solution sprayed) it was 1.8 × 10^7 cfu/ml; with Burkholderia glumae (10 times solution sprayed) it was 1.1 × 10^8 cfu/ml; with Burkholderia glumae (50 times solution sprayed) it was 3.2 × 10^8 cfu/ml. The results for the “Average value of viable bacteria counts” value with Ralstonia solanacearum (10 times solution sprayed) and with Ralstonia solanacearum (50 times solution sprayed) were 8.5 × 10^8 cfu/ml and 1.0 × 10^9 cfu/ml, respectively. Moreover, the “average value of viable filamentous fungi counts on all materials examined” value in the assay on Pythium ultimum (10 times solution sprayed) is listed as 2.3 × 10^4 cfu/ml; in the assay on Pythium ultimum (50 times solution sprayed) it was 1.5 × 10^4 cfu/ml; with Fusarium oxysporum (10 times solution sprayed), 3.2 × 10^5 cfu/ml; with Fusarium oxysporum (50 times solution sprayed) it was 4.7 × 10^5 cfu/ml; in the assay on Rhizoctonia solani (10 times solution sprayed), 1.3 × 10^5 cfu/ml; with Rhizoctonia solani (50 times solution sprayed), 2.0 × 10^5 cfu/ml. The “average value of viable filamentous fungi counts on all materials examined” value is reported as 4.2 × 10^4 cfu/ml in the assay with Pyricularia oryzae (10 times solution sprayed), 6.2 × 10^4 cfu/ml with Pyricularia oryzae (50 times solution sprayed), 4.5 × 10^5 cfu/ml with Botrytis cinerea (10 times solution sprayed) and 5.0 × 10^5 cfu/ml in the assay with Botrytis cinerea (50 times solution sprayed).

`O=C(O)CC(O)C(=O)O` (centres unmarked) [Malic acid]: the “Average value of viable bacteria counts” value is listed as 1.4 × 10^8 cfu/ml with Erwinia chrysanthemi (10 times solution sprayed); 1.2 × 10^8 cfu/ml with Erwinia chrysanthemi (50 times solution sprayed); 1.0 × 10^7 cfu/ml in the assay with Burkholderia plantarii (10 times solution sprayed); 3.2 × 10^7 cfu/ml in the assay with Burkholderia plantarii (50 times solution sprayed); 3.6 × 10^8 cfu/ml in the assay on Burkholderia glumae (10 times solution sprayed); 5.2 × 10^8 cfu/ml with Burkholderia glumae (50 times solution sprayed). Besides, the “Average value of viable bacteria counts” value with Ralstonia solanacearum (10 times solution sprayed) was 9.5 × 10^8 cfu/ml; with Ralstonia solanacearum (50 times solution sprayed) it was 7.8 × 10^8 cfu/ml. For the same molecule, the “average value of viable filamentous fungi counts on all materials examined” value with Pythium ultimum (10 times solution sprayed) was 2.5 × 10^4 cfu/ml; in the assay with Pythium ultimum (50 times solution sprayed), 4.3 × 10^4 cfu/ml; in the assay with Fusarium oxysporum (10 times solution sprayed) it was 1.8 × 10^5 cfu/ml; in the assay with Fusarium oxysporum (50 times solution sprayed) it was 4.5 × 10^5 cfu/ml; with Rhizoctonia solani (10 times solution sprayed), 2.1 × 10^5 cfu/ml; in the assay with Rhizoctonia solani (50 times solution sprayed), 1.8 × 10^5 cfu/ml. Besides, the “average value of viable filamentous fungi counts on all materials examined” value with Pyricularia oryzae (10 times solution sprayed) was 4.6 × 10^4 cfu/ml; with Pyricularia oryzae (50 times solution sprayed) it was 5.0 × 10^4 cfu/ml; with Botrytis cinerea (10 times solution sprayed) it was 3.7 × 10^5 cfu/ml; in the assay with Botrytis cinerea (50 times solution sprayed), 2.9 × 10^5 cfu/ml.

As for `O=C(O)CC(O)(CC(=O)O)C(=O)O` [Citric acid], the “Average value of viable bacteria counts” value with Erwinia chrysanthemi (10 times solution sprayed) is given as 1.7 × 10^8 cfu/ml; in the assay on Erwinia chrysanthemi (50 times solution sprayed) it was 1.9 × 10^8 cfu/ml; in the assay on Burkholderia plantarii (10 times solution sprayed) it was 3.8 × 10^7 cfu/ml; in the assay on Burkholderia plantarii (50 times solution sprayed) it was 1.0 × 10^7 cfu/ml; in the assay with Burkholderia glumae (10 times solution sprayed), 2.6 × 10^8 cfu/ml; with Burkholderia glumae (50 times solution sprayed), 1.7 × 10^8 cfu/ml. Moreover, the “Average value of viable bacteria counts” value in the assay on Ralstonia solanacearum (10 times solution sprayed) is 1.1 × 10^9 cfu/ml; with Ralstonia solanacearum (50 times solution sprayed), 1.5 × 10^9 cfu/ml. Further, the “average value of viable filamentous fungi counts on all materials examined” value in the assay on Pythium ultimum (10 times solution sprayed) is 2.8 × 10^4 cfu/ml; in the assay on Pythium ultimum (50 times solution sprayed), 1.7 × 10^4 cfu/ml; with Fusarium oxysporum (10 times solution sprayed), 3.7 × 10^5 cfu/ml; in the assay with Fusarium oxysporum (50 times solution sprayed), 3.4 × 10^5 cfu/ml; in the assay with Rhizoctonia solani (10 times solution sprayed) it was 2.0 × 10^5 cfu/ml; in the assay with Rhizoctonia solani (50 times solution sprayed), 1.7 × 10^5 cfu/ml. Further, the “average value of viable filamentous fungi counts on all materials examined” value is on record as 3.2 × 10^4 cfu/ml in the assay on Pyricularia oryzae (50 times solution sprayed), 2.6 × 10^5 cfu/ml with Botrytis cinerea (10 times solution sprayed) and 4.6 × 10^5 cfu/ml in the assay with Botrytis cinerea (50 times solution sprayed).

Turning to `O=C(O)CCC(=O)O` [Succinic acid], the “Average value of viable bacteria counts” value in the assay with Erwinia chrysanthemi (10 times solution sprayed) is reported as 1.0 × 10^8 cfu/ml; with Erwinia chrysanthemi (50 times solution sprayed), 1.0 × 10^8 cfu/ml; in the assay with Burkholderia plantarii (10 times solution sprayed) it was 2.5 × 10^7 cfu/ml; in the assay on Burkholderia plantarii (50 times solution sprayed), 2.6 × 10^7 cfu/ml; in the assay with Burkholderia glumae (10 times solution sprayed), 1.0 × 10^8 cfu/ml; in the assay on Burkholderia glumae (50 times solution sprayed), 1.5 × 10^8 cfu/ml. The figures for the “Average value of viable bacteria counts” value in the assay on Ralstonia solanacearum (10 times solution sprayed) and in the assay with Ralstonia solanacearum (50 times solution sprayed) were 1.1 × 10^9 cfu/ml and 8.5 × 10^8 cfu/ml, respectively. Also, the “average value of viable filamentous fungi counts on all materials examined” value in the assay with Pythium ultimum (10 times solution sprayed) is given as 7.8 × 10^3 cfu/ml; with Pythium ultimum (50 times solution sprayed) it was 3.0 × 10^4 cfu/ml; in the assay with Fusarium oxysporum (10 times solution sprayed) it was 2.3 × 10^5 cfu/ml; with Fusarium oxysporum (50 times solution sprayed), 4.5 × 10^5 cfu/ml; with Rhizoctonia solani (10 times solution sprayed) it was 1.5 × 10^5 cfu/ml; with Rhizoctonia solani (50 times solution sprayed), 2.1 × 10^5 cfu/ml. In addition, the “average value of viable filamentous fungi counts on all materials examined” value is recorded as 3.2 × 10^4 cfu/ml with Pyricularia oryzae (10 times solution sprayed), 3.1 × 10^4 cfu/ml with Pyricularia oryzae (50 times solution sprayed), 3.5 × 10^5 cfu/ml with Botrytis cinerea (10 times solution sprayed) and 4.3 × 10^5 cfu/ml in the assay on Botrytis cinerea (50 times solution sprayed).
